Experimental data taken from patent US20090275503A1, “DIASTEREOMERIC PEPTIDES FOR MODULATING T CELL IMMUNITY” (Yeda Research and Developent Co., Ltd. at the Weizman …, priority 2005, published 2009).
Non-standard residues stand in square brackets, D forms with d. Residues, ends and D or L forms follow the SMILES beside them. No end group written: not given here.

What was measured:
[1] = tested on: rat TCR; experiment: Co-immunoprecipitation of fluorescence-labeled peptides with TCR molecules; assay type: binding; conditions: Rho-labeled peptides
Method: Activated A2b T cells (2×10^6) were cultured for 1 hr at 37° C. in the presence of CP or 2D-CP (25 μg/ml), or 2G-CP, and lysed for 15 min on ice in 0.1 ml lysis buffer (Adachi et al., 1996). Insoluble material was removed by centrifugation at 10.000 g for 10 min at 4° C. The lysate was then incubated overnight with Protein A-plus Agarose beads (Santa Cruz Biotechnology Inc., Santa Cruz, Calif., USA) bound to antibodies to the rat TCR or MHC class 1. The antibodies reactive against the rat TCR (clone R73) or HSP60 (clone LKI) were purified from the respective hybridomas at our lab; antibodies to rat CD28, actin and the rat MHC class 1 were purchased from Serotec (Oxford, UK). After an overnight incubation at 4° C., the beads were washed with lysis buffer, boiled for 10 minutes and the protein supernatant run in a 4-20% SDS-PAGE. The presence of co-immunoprecipitated peptide was detected by the Typhoon 9400 variable mode imager.
Next, co-immunoprecipitation experiments were performed. The affinity of the TCR/CP, the TCR/2D-CP and TCR/2G-CP interactions were compared by performing a series of co-precipitation experiments using different concentrations of Rho-labeled CP, 2D-CP and 2G-CP peptides.

[2] = tested on: LNC from Mt primed rats; experiment: T-cell proliferation of LNC from Mt-immunized rats activated with PPD or Mt176-90 (Part A); assay type: cell-based, rat; conditions: LNC, 72 hr, 3H-thymidine incorporation
[3] = tested on: Lewis rats; experiment: Adjuvant arthritis (AA) in Lewis rats (Part A); assay type: in vivo, rat
Method: (§1) To test the effect of CP on T-cell activation in vivo, the experimental T-cell mediated autoimmune disease adjuvant arthritis (AA) was used. AA was induced by injecting 50 μl of Mt suspended in IFA (10 mg/ml) at the base of the tail. At the time of AA induction, each rat also received 100 μg of all-L CP, 2D-CP or 2G CP control peptide (or PBS) dissolved in 50 μl of IFA and mixed with Mt/IFA used to induce AA. The day of AA induction was designated as day 0. Disease severity was assessed by direct observation of all 4 limbs in each animal. A relative score between 0 and 4 was assigned to each limb, based on the degree of joint inflammation, redness and deformity; thus the maximum possible score for an individual animal was 16 (Quintana et al., 2002). The mean AA score (±SEM) is shown for each experimental group. Arthritis was also quantified by measuring hind limb diameter with a caliper. Measurements were taken on the day of the induction of AA and 26 days later (at the peak of AA); the results are presented as the mean±SEM of the difference between the two values for all the animals in each group. The person who scored the disease was blinded to the identity of the groups.
Next, the contribution of the secondary structure and the side-chains to the inhibitory effects of CP on T cell activation In vivo was analyzed, using the experimental autoimmune disease Adjuvant Arthritis (AA). Immunization of Lewis rats with Mt triggers AA, an autoimmune disease driven by Mt-specific T cells that cross-react with self-antigen (Holoshitz et al., 1984; Holoshitz et al., 1983). PPD and Mt176-90 are targeted by the arthritogenic T-cell response (Anderton et al., 1994); indeed immunomodulatory therapies that inhibit the progression of arthritis have been associated with a decreased T cell response to PPD and Mt176-90 and with a diminished delayed type hypersensitivity (DTH) response to PPD (van Eden et al., 1985).

[4] = tested on: Lewis rats; experiment: Delayed type hypersensitivity to PPD in AA rats (Part A); assay type: in vivo, rat; conditions: 16 days after AA induction, ear thickness 48 hr after PPD
Method: (§2) Twenty μl of PPD (0.5 mg/ml in PBS) were injected intradermally into the pinna of the right ear of each rat on day 16 after AA induction; 20 μl of sterile PBS were injected in the left ear as control. The thickness of the ear was measured 48 hr later using a vernier caliper and expressed as the difference between the right and the left ear (Quintana et al., 2005).

[5] = tested on: BALB/c mice; experiment: Delayed type hypersensitivity to oxazalone in mice; assay type: in vivo, mouse; conditions: topical treatment 1 hr after oxazalone challenge; peptides 150 μg (6 mg/kg) in DMSO; measured following day
Method: Groups of 5 female inbred BALB/c mice (The Jackson Laboratory) were sensitized on the shaved abdominal skin with 100 μl of 2% Oxazalone dissolved in acetone/olive oil [4:1 (vol/vol)] applied topically. DTH sensitivity was elicited 5 days later by challenging the mice with 20 μl of 0.5% Oxazalone in acetone/olive oil, 10 μl administered topically to each side of the ear. A constant area of the ear was measured immediately before challenge and 24 h after challenge with a Mitutoyo engineer's micrometer. The individual measuring ear swelling was unaware of the identity of the groups of mice. The DTH reaction is presented as the increment of ear swelling after challenge expressed as the mean±SEM in units of 10-2 mm. One hour after the challenge the mice's ears were treated topically with either all-L CP or with 2D-CP, both dissolved in 40 μl DMSO. The activity of the peptide treatments was compared to treatment with DMSO alone for “untreated mice” and Dexamethasone (100 μg/ml in saline) as a positive control.
To test whether TCR trans-membrane peptides could inhibit the elicitation of existing DTH reactivity, groups of naïve BALB/c mice were sensitized to 2% oxazalone. Five days later, the mice were challenged with 0.5% oxazalone administered to the ear. An hour after the challenge, the mice were treated with Dimethylsulfoxide (DMSO), all-L CP 150 μg (6 mg/kg) in DMSO, 2D-CP 150 μg (6 mg/kg) in DMSO, or dexamethasone, applied topically. On the following day, ear thickness was measured the swelling of DMSO treated mice (0.33±0.01 mm) was compared to that of mice treated with all-L CP (0.30±0.01 mm), 2D-CP (0.27±0.01 mm) and Dexamethasone (0.15±0.02 mm). […] Thus, 2D-CP can inhibit a T-cell mediated immune reaction in subjects already sensitized to the antigen.

[6] = tested on: target cells; experiment: Cytotoxic effect on the target cells (Part A); conditions: incubated with the target cells
[7] = tested on: LNC from Mt-immunized rats; experiment: T-cell proliferation of LNC or A2b T cell line (Part B, amidated peptides); assay type: cell-based, rat; conditions: for Inhibition of T-cell proliferative responses to PPD and to Mt176-90: amidated peptides, LNC, 72 hr
[8] = tested on: cells; experiment: Cytotoxicity when incubated with cells (Part B); assay type: cell-based, rat
[9] = tested on: Lewis rats; experiment: Adjuvant arthritis (AA) in Lewis rats (Part B); assay type: in vivo, rat; conditions: for Mean maximum AA score: 100 μg amidated peptide per rat at AA induction, maximum possible score 16; for Effect on adjuvant arthritis (clinical score and ankle swelling): 100 μg amidated peptide per rat with the antigen at AA induction
Method: as §1, with “we used AA as a model system.” for “the experimental T-cell mediated autoimmune disease adjuvant arthritis (AA) was used.”, “(0.5” for “(10”, “L-CP, D-CP” for “all-L CP, 2D-CP”, “16.” for “16 (Quintana et al., 2002).”
To test the inhibitory effects of CP on the activation of specific T cells in vivo, we used the adjuvant arthritis (AA) model. Immunization of Lewis rats with Mt in oil triggers AA, an experimental autoimmune disease driven by Mt-specific T cells cross-reactive with self-antigens. Mt176-90-specific T cells are detectable upon induction of AA; indeed the A2b T-cell clone cross-reacts with cartilage and mediates AA. Since L and D-CP inhibited the T-cell response of primed LNC and of clone A2b to PPD and […] in vitro (FIG. 9), we also investigated the effects of L- or D-CP on the in vivo activation of the T cells that drive AA. […] The mean maximum score was 12±0.3 in the control-treated rats, compared with 6±0.7 in the D-CP-treated rats and 7.3±0.7 in the L-CP-treated rats (p<0.05 for the L and D-CP groups compared to the control groups).

[10] = tested on: Lewis rats; experiment: Delayed type hypersensitivity (DTH) to PPD in AA rats (Part B); assay type: in vivo, rat; conditions: 16 days after AA induction
Method: as §2, with “ear” for “ear of each rat”, “ear.” for “ear (Quintana et al., 2005).”
The activity of the T cells that mediate AA can also be detected in vivo by studying the delayed type hypersensitivity (DTH) response to PPD. We studied the DTH response to PPD 16 days after AA induction in rats treated with the three peptides.

## GLRILLLKV [all-L CP] (GLRILLLKV-NH2; listed as Homo sapiens) [reference compound]
[1]; activated A2b T cells
  Co-precipitation with the TCR: can be co-precipitated with the TCR
[1]; different concentrations
  Affinity of TCR interaction compared with TCR/2D-CP: higher affinity
[2]
  Inhibition of T-cell proliferation to PPD and to Mt176-90: inhibited T-cell proliferation to PPD and to Mt176-90 in a dose-dependent manner
[3]; 100 μg peptide per rat at AA induction, maximum possible score 16
  Mean maximum AA score: 7.7±0.7
[3]; 100 μg peptide per rat with Mt at the time of AA induction
  Effect on adjuvant arthritis (clinical score and paw swelling): significantly milder arthritis
[4]
  Reduction in the DTH response to PPD: 39%
[5]
  Ear swelling: 0.30±0.01 mm
[6]
  Cytotoxic effect: None of the peptides (all-L CP, 2D-CP or 2G CP) had a cytotoxic effect

## CC[C@@H](C)[C@@H](NC(=O)[C@@H](CCCNC(=N)N)NC(=O)[C@@H](CC(C)C)NC(=O)CN)C(=O)N[C@H](CC(C)C)C(=O)N[C@H](CC(C)C)C(=O)N[C@H](CC(C)C)C(=O)N[C@H](CCCCN)C(=O)N[C@@H](C(N)=O)C(C)C [D-CP, X-GLRILLLKV-NH2] (H-G[dL][dR][dI][dL][dL][dL][dK][dV]-NH2)
[7]
  Inhibition of T-cell proliferative responses to PPD and to Mt176-90: inhibited the T-cell proliferative responses to PPD and to Mt176-90 in a dose-dependent manner
[7]; at the lower concentrations
  Inhibition of T-cell proliferation compared with L-CP: consistently higher
[8]
  Cytotoxicity: showed no cytotoxicity
[9]
  Mean maximum AA score: 6±0.7
  Effect on adjuvant arthritis (clinical score and ankle swelling): significantly milder arthritis
[10]
  Reduction in the DTH response to PPD: 48%

## C[C@@H]1C[C@H]2[C@@H]3CCC4=CC(=O)C=C[C@]4(C)[C@@]3(F)[C@@H](O)C[C@]2(C)[C@@]1(O)C(=O)CO [Dexamethasone, reference compound]
[5]
  Ear swelling: 0.15±0.02 mm

## GLRILLLKV-NH2 [L-CP, X-GLRILLLKV-NH2, reference compound]
[7]
  Inhibition of T-cell proliferative responses to PPD and to Mt176-90: inhibited the T-cell proliferative responses to PPD and to Mt176-90 in a dose-dependent manner
[8]
  Cytotoxicity: showed no cytotoxicity
[9]
  Mean maximum AA score: 7.3±0.7
  Effect on adjuvant arthritis (clinical score and ankle swelling): significantly milder arthritis
[10]
  Reduction in the DTH response to PPD: 39%
